Reference: US7060731B2, “Use of amines” (Amersham Health AS, priority 2000, dated 2006)

Key:
Format in all cases: biochemical
[1] = tested on: alternative pathway of complement (ZAS activated); assay: In vitro complement activation of human serum by Zymosan A (ZAS), comparison of meglumine analogues; settings: FIG. 6
Method: (§1) A method for investigation of the ability of different agents to activate the complement system in vitro is described. Briefly, human serum is exposed to the different agents for 30 min at 37Ec. The activation is stopped by placing the samples in an ice-water bath and immediately add cold EDTA-solution at a final concentration of 15 mM. The latter stops further activation by chelating calcium and magnesium ions. The degree of activation is subsequently determined by using commercially available enzyme immunoassays (EIA) for determination of specific complement activation products. In these experiments C3a-desArg or SC5b-9 have been used, representing early pathway activation and terminal pathway activation respectively.
In order to investigate and compare the inhibitory effects on in vitro complement activation of other compounds with structural resemblance to meglumine (N-methyl-D-glucamine), a new study was performed. The new test substances chosen were N-methyl-mannosamine, 3-methylamino-1,2-propanediol and 2-(methylamino)ethanol.
Human serum was exposed to Zymosan A (ZAS), a strong activator of the alternative pathway of complement, at three different concentrations (5, 2 and 1 mg/mL serum). The complement activation induced by ZAS alone was compared with that obtained when adding the different test substances at two different concentrations to the ZAS-activated serum. In addition to the three chosen test substances meglumine was included for comparison.
To investigate the inhibitory effects of the test substances at a concentration corresponding to what is given of meglumine when injecting contrast agents such as Hexabrix, a concentration of 5.3 mg/mL serum was used. […] Complement activation induced by ZAS both at 2 and 1 mg/mL, was inhibited by meglumine, 3-methylamino-1,2-propanediol and 2-(methylamino)-ethanol. […] It should be noted that although the concentration of ZAS was reduced, the complement activation obtained was much higher than what would be expected in vivo. Thus meglumine, 3-methylamino-1,2-propanediol and 2-(methylamino)-ethanol seem to be very effective in controlling complement activation.

[2] = tested on: complement system (early pathway activation, C3a-desArg); assay: In vitro complement activation by X-ray contrast agents in human serum, C3a-desArg EIA; settings: for inhibition of complement activation induced by Visipaque: substance added to Visipaque, human serum
Method: A method for investigation of the ability of different agents to activate the complement system in vitro is described. Briefly, human serum is exposed to the different agents for 30 min at 37Ec. The activation is stopped by placing the samples in an ice-water bath and immediately add cold EDTA-solution at a final concentration of 15 mM. The latter stops further activation by chelating calcium and magnesium ions. The degree of activation is subsequently determined by using commercially available enzyme immunoassays (EIA) for determination of specific complement activation products. In these experiments C3a-desArg or SC5b-9 have been used, representing early pathway activation and terminal pathway activation respectively. The concentrations of contrast agents used in vitro in these experiments is based on the following assumptions: One of the applied clinical doses (ACD) used in vivo is 150 mL Visipaque at a concentration of 320 mg I/mL. For a person of 70 kg with a blood volume of about 5.5 L and a plasma fraction of about 3.5 L, the ACD corresponds to 13.7 mg I/mL serum in the test system. Five times this concentration (68.5 mgI/mL serum) was used for all contrast agents to cover maximum blood concentration immediately after bolus injection of the substances. Hexabrix and Visipaque with concentrations of 320 mg I/mL and phosphate buffered saline (at an equal volume) were added to human serum. Subsequently in vitro complement activation was performed as described previously followed by the determination of C3a-desArg. […] In order to investigate the effect of meglumine on complement activation, meglumine at different concentrations were added to Visipaque and in vitro complement activation was performed followed by determination of C3a-desArg. […] An expanded concentration response experiment (tighter concentration range) was subsequently performed. Ten concentrations of meglumine ranging from 0–18% (w/w) of the iodine content in Visipaque were used. […] The effects of meglumine (39% w/w of mg I/ml) on other non-ionic x-ray contrast agents were investigated. Iopamidol, Omnipaque, Ultravist and Visipaque were added to human serum at a final concentration of 68.5 mg I/mL. Subsequently in vitro complement activation was performed, followed by determination of C3a-desArg as previously described in the section “In vitro complement activation” and in Example 1.

[3] = tested on: coagulation system (intrinsic pathway); assay: Partial activated thromboplastin time test (commercial)
Method: (§2) As the body cascade systems are connected, the effects of meglumine on the coagulation system were investigated, by using commercial tests for prothrombin time (extrinsic pathway) and partial activated thromboplastin time (intrinsic pathway). Briefly, meglumine was added to the test systems at final concentrations of 4 mg/mL and 25 mg/mL. In the prothrombin time test meglumine increased the coagulation time by 20.5 and 72.7 seconds respectively. In the partial activated thromboplastin time test the coagulation time was increased by 6.2 and 117.9 seconds respectively. The control plasma heparin, supplied with the kit, increased the coagulation time by 36.4 seconds compared with normal plasma. Meglumine seems to prolong the coagulation time in a concentration dependent way, exceeding the time obtained for heparin plasma at the highest concentration used.

[4] = tested on: alternative pathway of complement (Zymosan A activated, SC5b-9); assay: In vitro complement activation by Zymosan A in human serum, SC5b-9 EIA; settings: Zymosan A 10 mg/mL serum, meglumine 390 mg/mL, 1 hour 37 C, FIG. 4
Method: as §1
(§3) The alternative and classical pathways represent the main ways of activating the complement system. The ability of meglumine to inhibit these pathways were investigated by using well known activators, Zymosan A (alternative pathway activator) and heat aggregated IgG (classical pathway activator). Zymosan A at 10 mg/mL serum or Zymosan A added meglumine at a final concentration of 39% (w/v) (390 mg/mL) was added to human serum and incubated for 1 hour at 37^EC on a vial roller. To obtain heat aggregated IgG, rabbit IgG at 30 mg/mL was incubated for 30 min at 65EC on a vial roller. […] The samples were analysed for SC5b-9. […]

[5] = tested on: classical pathway of complement (heat aggregated IgG activated, SC5b-9); assay: In vitro complement activation by heat aggregated IgG in human serum, SC5b-9 EIA; settings: heat aggregated IgG 5 mg/mL serum, meglumine 390 mg/mL, FIG. 5
Method: as §1, §3

[6] = tested on: coagulation system (extrinsic pathway); assay: Prothrombin time test (commercial)
Method: as §2

[7] = ZAS 5 mg/mL serum, test substance 390 mg/mL
[8] = ZAS 2 and 1 mg/mL serum, test substance 5.3 mg/mL serum

| Compound | inhibition of in vitro complement activation induced by ZAS [1, 7] | inhibition of in vitro complement activation induced by ZAS [1, 8] | inhibition of complement activation induced by Visipaque ([2]; C3a-desArg) | also measured |
| --- | --- | --- | --- | --- |
| CNCCO [2-(methylamino)-ethanol] | inhibited | inhibited | – | – |
| CNCC(O)CO (centres unmarked) [3-methylamino-1,2-propanediol] | inhibited | inhibited | – | – |
| OC[C@@H](O)[C@@H](O)[C@H](O)[C@H](O)CO [Mannitol, reference compound] | – | – | no inhibitory effects | – |
| CN[C@@H]1C(O)O[C@H](CO)[C@@H](O)[C@@H]1O (some centres unmarked) [N-methyl-mannosamine] | inhibited | weaker inhibitory effect | – | – |
| CNC[C@H](O)[C@@H](O)[C@H](O)[C@H](O)CO [meglumine, N-methyl-D-glucamine] | inhibited | inhibited | abolished the complement activation | increase of coagulation time, partial activated thromboplastin time test ([3]; final concentration 4 mg/mL): 6.2 s; increase of coagulation time, partial activated thromboplastin time test ([3]; final concentration 25 mg/mL): 117.9 s; inhibition of alternative pathway activation of complement (SC5b-9) [4]: inhibited; inhibition of Visipaque-induced complement activation after pH adjustment ([2]; Visipaque with meglumine (pH 11) vs adjusted with HCl to pH 7.4, FIG. 3): not due to the high pH; meglumine concentration at which an inhibitory effect was observed ([2]; meglumine 0–32.5% added to Visipaque, C3a-desArg, FIG. 1): 8–32.5 % (w/w) of the iodine content in Visipaque; inhibition of in vitro complement activation by non-ionic contrast agents (C3a-desArg) ([2]; meglumine 39% w/w of mg I/ml, Iopamidol, Omnipaque, Ultravist and Visipaque at 68.5 mg I/mL serum, FIG. 7): inhibited; lowest concentration of meglumine able to inhibit the complement activation ([2]; ten concentrations 0–18% (w/w) of iodine content in Visipaque, C3a-desArg, FIG. 2): 6 % of the iodine content; inhibition of classical pathway activation of complement (SC5b-9) [5]: inhibited; increase of coagulation time, prothrombin time test ([6]; final concentration 4 mg/mL): 20.5 s; increase of coagulation time, prothrombin time test ([6]; final concentration 25 mg/mL): 72.7 s |
